From patent US11814680B2, “Biomarkers for detecting senescent cells” (Universität für Bodenkultur Wien, priority 2017, dated 2023) come the findings set out here.

Series [1] relates to p16-3MR mice. Put plainly: RT-qPCR verification of serum circulating microRNA changes, one-way ANOVA. In kind it is in vivo, mouse. The following applies: for change of serum level following senolytic treatment (DOX/GCV compared to DOX): p<0.05, in words; for One-way ANOVA Senolytic Treatment (DOX/GCV) / One-way ANOVA Senescence (DOX vs PBS): serum; for One-way ANOVA Senolytic Treatment (DOX/GCV): DOX/GCV compared to DOX; for One-way ANOVA Senescence (DOX vs PBS): n=8 per group, male and female mice; for regulation in serum after exposure to DOX compared to PBS: independent of gender, in words. On the procedure: p16-3MR (Demaria et al, 2014, Developmental Cell 31:722-733) mice were bred in house and maintained in the AALAC-accredited Buck Institute for Research on Aging (Novato, Calif.) animal facility. 10 to 12-week-old p16-3MR […] mice were used for experiments. Mice were divided in 4 groups and each group consisted of 8 animals, 5 female, and 3 male, respectively. In group A, control mice were injected with PBS. In group B, mice were treated with Ganciclovir (GCV) (Sigma-Aldrich) dissolved in PBS for 5 consecutive days. In group C, mice were treated with one dose of Doxorubicine hydrochloride (Sigma-Aldrich) dissolved in PBS. In group D, mice were first treated with Doxorubicine and then treated 10 days later with GCV. Mice were intraperitoneally injected with one dose of 10 mg/kg of Doxorubicine hydrochloride, and GCV was administered daily by intraperitoneal injections for 5 consecutive days at concentration of 25 mg/kg in PBS. 4 days after the last GCV dose, animals were euthanized with CO2 and blood was withdrawn immediately. Blood was then incubated for 30 min at room temperature and centrifuged at 3400×g for 10 min. Serum was carefully collected in a sterile tube without disturbing the cell pellet and stored at −80° C. for further experiments.
Total RNA extraction was performed from 200 μl of serum using the Qiagen miRNeasy extraction kit (Qiagen, Germany). RNA yield was quality checked for homogenous extraction efficiency and hemolysis on the basis qPCR amplification of spiked-in as well as hemolysis-responsive RNAs (Blondal et al). In total 2 μl total RNA were used for reverse transcription using the Exiqon Universal RT kit II (Exiqon, Denmark). The obtained cDNA samples were pre-diluted 1:40 and subsequently mixed with SYBR Green® Mix (Exiqon, Denmark) to achieve a 1:100 dilution. The mix was distributed to primer-coated 384-well plates containing dried primer pairs for 96 selected microRNA or quality control assays. QPCR amplification was performed on a Roche LightCycler 480 II, using the manufacturer's recommendation for annealing, extension and denaturation.
Raw Cq-values were computed using the 2nd derivative method. Melting curves were checked for peaks to ensure specificity of the amplification reactions. Cq-values were subsequently normalized using Spike-In controls as references, to reduce technical noise in the data.
(§1) Statistical analysis was performed using Medcalc (version 18.2.1). Normal distribution was assessed using D'Agostino-Pearson test, where normality was accepted at p>0.05. One-way ANOVA together together with Student-Newman-Keuls test for all pairwise comparisons (post-hoc tests) was used to identify significant changes between groups (p<0.05). To assess the discriminatory power of individual microRNAs, receiver operating characteristic (ROC) analysis was applied. ROC curves were plotted using sensitivity (y-axis) and 1-specificity (x-axis) and the area under the ROC curve (AUC) was calculated. MicroRNAs with AUC-values of >0.7 were considered as good discriminators/biomarkers. MicroRNAs with AUC-values >0.8 were considered very good discriminators/biomarkers.
(In general: In qPCR the cycle at which signal appears reflects the starting amount.)

Series [2] has as its system p16-3MR mice. Put plainly: ROC analysis of discriminatory power of circulating microRNAs. The note with it: serum, RT-qPCR, symbol after the number = significance; for ROC Analysis AUC Senescence: DOX vs PBS; for ROC Analysis AUC Senolytic Treatment: DOX/GCV vs DOX. The class given is in vivo, mouse. On the procedure:
as §1
In order to assess the diagnostic power of circulating microRNAs for the exposure with senescence inducing substances (DOX) as well as the efficacy of senolytic treatment, ROC analysis was performed and the area-under-the-curve (AUC) was calculated. […] Table 23 below summarizes AUC values as well as 95% confidence intervals for 24 selected circulating microRNAs.

Marks after values point to notes of the source that are not given here.

In the case of “miR-181b-5p: circulating microRNA biomarker, SEQ ID No. 84 (AACAUUCAUUGCUGUCGGUGGGU; expressed or natural sequence; listed as Homo sapiens)”, in series [1], the “change of serum level following senolytic treatment (DOX/GCV compared to DOX)” value (“change … (DOX/GCV compared to DOX)” below) is “significantly changed”, the “One-way ANOVA Senolytic Treatment (DOX/GCV)” value is listed as “+ (by trend p < 0.2)” and the “One-way ANOVA Senescence (DOX vs PBS)” value is reported as “+ (by trend p < 0.2)”. Besides, in series [2], the “ROC Analysis AUC Senescence” value is listed as 0.680+ and the “ROC Analysis AUC Senolytic Treatment” value was 0.75+.
As to “miR-34a-3p: circulating microRNA biomarker, SEQ ID No. 59 (CAAUCAGCAAGUAUACUGCCCU; expressed or natural sequence; listed as Homo sapiens)”, in series [1], the “regulation in serum after exposure to DOX compared to PBS” value was “significantly (up- or down-regulated)”, the “One-way ANOVA Senolytic Treatment (DOX/GCV)” value was “○” and the “One-way ANOVA Senescence (DOX vs PBS)” value is “* (significant p < 0.05)”. Moreover, in series [2], the “ROC Analysis AUC Senescence” value was 0.953* and the “ROC Analysis AUC Senolytic Treatment” value came out at 0.5°.
With “miR-125a-5p: circulating microRNA biomarker, SEQ ID No. 90 (UCCCUGAGACCCUUUAACCUGUGA; expressed or natural sequence; listed as Homo sapiens)”, in series [1], the “change … (DOX/GCV compared to DOX)” value is reported as “significantly changed”, the “One-way ANOVA Senolytic Treatment (DOX/GCV)” value is on record as “* (significant p < 0.05)” and the “One-way ANOVA Senescence (DOX vs PBS)” value was “+ (by trend p < 0.2)”. Also, in series [2], the “ROC Analysis AUC Senescence” value is 0.742+ and the “ROC Analysis AUC Senolytic Treatment” value is 0.789*.
Taken in the same sequence, the figures for “miR-215-5p: circulating microRNA biomarker, SEQ ID No. 86 (AUGACCUAUGAAUUGACAGAC; expressed or natural sequence; listed as Homo sapiens)” were “significantly changed”, “* (significant p < 0.05)”, “○”, 0.531° and 0.922*.
Turning to “miR-199b-5p: circulating microRNA biomarker, SEQ ID No. 82 (CCCAGUGUUUAGACUAUCUGUUC; expressed or natural sequence; listed as Homo sapiens)”, in series [1], the “regulation in serum after exposure to DOX compared to PBS” value is on record as “significantly (up- or down-regulated)”, the “One-way ANOVA Senolytic Treatment (DOX/GCV)” value is “+ (by trend p < 0.2)” and the “One-way ANOVA Senescence (DOX vs PBS)” value is “* (significant p < 0.05)”. Also, in series [2], the “ROC Analysis AUC Senescence” value was 0.750+ and the “ROC Analysis AUC Senolytic Treatment” value is 0.734+.
Taken in the same sequence, the figures for “miR-345-5p: circulating microRNA biomarker, SEQ ID No. 83 (GCUGACUCCUAGUCCAGGGCUC; expressed or natural sequence; listed as Homo sapiens)” were “significantly (up- or down-regulated)”, “* (significant p < 0.05)”, “* (significant p < 0.05)”, 0.781* and 0.875*.
Consider “miR-483-5p: circulating microRNA biomarker, SEQ ID No. 91 (AAGACGGGAGGAAAGAAGGGAG; expressed or natural sequence; listed as Homo sapiens)”, for which, in series [1], the “change … (DOX/GCV compared to DOX)” value is reported as “significantly changed”, the “One-way ANOVA Senolytic Treatment (DOX/GCV)” value is on record as “* (significant p < 0.05)” and the “One-way ANOVA Senescence (DOX vs PBS)” value is reported as “○”. In series [2], the “ROC Analysis AUC Senescence” value came out at 0.563° and the “ROC Analysis AUC Senolytic Treatment” value was 0.766*.
